Test results taken from US11857601B2, “Pharmaceutical composition for cancer treatment comprising fusion protein including IL-2 protein and CD80 protein and anticancer drug” (GI INNOVATION, INC., priority 2020, dated 2024).

How the values were obtained:
[1] = system: CD8+ T cells and NK cells; test: Proliferation of CD8+ T cells and NK cells in mouse spleen; type: in vivo, C57BL/6 mice; settings: 40.5 μg i.p., spleen five days after injection; compared with GI101w
Description: 7-week-old C57BL/6 mice purchased from Orient Bio (Korea) were divided into 3 groups, each group including 3 mice, and PBS, GI101, or GI101w was injected intraperitoneally thereinto. Here, GI101 and GI101w were respectively prepared to be at 40.5 μg in 200 μl of PBS, and injected intraperitoneally thereinto. Five days after the injection, the spleens were removed from the mice of each group. The cells were isolated therefrom, and the total number of cells was measured using a hematocytometer. Splenocytes were examined for proportions of CD8+ T cells and NK cells therein, with FACS analysis using staining with APC-CD3ε antibody (Biolegend; 145-2C11), PE-NK1.1 antibody (Biolegend; PK136), and Pacific blue-CD8α antibody (BD; 53-6.7). As such, the numbers of CD8+ T cells and NK cells present in the spleen were calculated.

[2] = system: HCT116 cells; test: Cancer cell killing, GI-101 and Pertuzumab, HCT116 with NK cells; type: cell-based, human; settings: GI-101 0.4-100 nM, Pertuzumab 16.9 nM, 24 hours
Text: This experiment was to evaluate the effect of killing cancer cells by treating HCT116 cells (human colon cancer cells) with the test substance GI-101 alone or in combination with Pertuzumab substance in an in vitro environment.
HCT116 cells were purchased from the Korea cell line bank and cultured in McCoy's 5A medium (ATCC) containing 10% FBS (Gibco) and 1% antibiotic/antifungal agent (Gibco). For use in cancer cell killing test, the cells were harvested using trypsin (Gibco), and then suspended in McCoy's 5A medium, and then dead cells and debris were removed using Ficoll (GE Healthcare Life Sciences) solution. The cells suspended in McCoy's 5A medium were carefully layered on ficoll solution. […]
In order to identify the effect of killing the cells, a CytoTox Green reagent ([…]™ CytoTox Green, Satorius) that binds to the DNA of cells to be killed was prepared in 1 μl per 1 mL of RPMI1640 medium containing 5% human AB serum (Sigma). The prepared medium was used for dilution of the test substance, and the effect of killing the cells could be quantitatively identified by staining the cells to be killed when the test substance was co-cultured with cancer cell lines and PBMCs. […]

[3] = system: immune cells in cancer tissues; test: Immune cell analysis in LL/2 cancer tissue (FACS); type: in vivo, C57BL/6 mice
Description: The mice of each group in Experimental Example 16.1 were sacrificed when the tumor volume reached an average of 200 mm^3, and cancer tissues were collected.
Thereafter, FACS analysis was performed in the same manner as Experimental Example 16.2. to analyze immune cells in the cancer tissues.

For “GI101: fusion protein: human CD80 fragment, Ig hinge, Fc domain, linker, IL-2 variant (2M) (R38A, F42A); SEQ ID NO: 9”, the “proliferation of CD8+ T cells and NK cells in vivo” value [1] was “activated proliferation”, the “effect of killing cancer cells” value [2] was “excellent effect of killing cancer cells” and the “CD8+ T cells in cancer tissue” value ([3]; 0.1 mg/kg, compared with anti-PD-1 antibody alone) was “significant increase”. The “level of CD86 expression in macrophages and dendritic cells” value ([3]; all GI101 groups) was “increased level” and the “level of expression of IFN-γ” value ([3]; all GI101 groups, vs negative control) was “significantly increased level”.
